Measurements reported in PMC12254266, “Multicolored sequential resonance energy transfer for detection of simultaneous ligand binding at G protein-coupled receptors” (Nature Communications, 2025).
Where “and” joins values, the source holds several entries; their conditions need not be identical. Identical values can stand only once. Like-named read-outs stand apart in the source and are kept apart here.

Legend:
Nluc-FFA1 = biological target: T1, Nluc-FFA1 (Homo sapiens, UniProt O14842); test: NanoBRET binding (saturation, competition, kinetics) at N terminal Nluc tagged FFA1
T1 construct: expressed in transfected cells

FFA1 [1] = biological target: T2, FFA1 (Homo sapiens, UniProt O14842); test: Ca2+ mobilisation (Fura2) in Flp-In T-REx 293 cells expressing Nluc-FFA1, FFA1-Nluc or untagged FFA1; format: cell-based; parameters: expressed in transfected cells
Summary of the method: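 520 nm emission read at 340 and 380 nm excitation over 90 s spanning compound addition. Response taken as peak 340/380 ratio after subtracting pre-addition ratios.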

FFA1 [2] = biological target: T2, FFA1; test: NanoBiT arrestin-3 recruitment in HEK293T cells; format: cell-based; parameters: expressed in transfected cells; host or cells: HEK293T, transient; settings: ± SEM
Procedure: For arrestin-3 recruitment assays, HEK293T cells were transfected with FFA1 receptor and a bystander NanoBiT split luciferase arrestin-3 recruitment biosensor. Cells were transfected and plated simultaneously in a reverse transfection protocol into a poly-D-lysine coated white 96-well plate. Per well, 60,000 cells were transfected with 5 ng plasmid expressing LgBiT with a N-terminal Lyn11 plasma membrane localisation tag, 5 ng plasmid expressing bovine arrestin-3 fused at its N-terminal to SmBiT tag and 30 ng plasmid expressing the human FFA1 receptor. Total DNA was made up to 100 ng total/well with empty pcDNA3 vector and transfected to cell suspension with 0.6 µg/well PEI. Following transfection cells were cultured for 24 h before use. On the day of assay, cells were washed twice with HBSS and incubated in HBSS for 30 min at 37 °C. NanoGlo substrate was added at a final 1:800 dilution and incubated in the dark for 10 min at 37 °C. […] Raw luminescence values were divided by baseline signal (average of first 5 data points prior to compound addition) and vehicle measurements subtracted from agonist treatment. Area under curves were calculated and concentration response curves plotted.

FFA1-Nluc = FFA1-Nluc (Homo sapiens, UniProt O14842); test: Bystander BRET internalisation assay, FFA1-Nluc in HEK293T cells; format: cell-based; parameters: expressed in transfected cells; host or cells: HEK293T (ATCC, CRL-3216), transient; settings: in words; up to 60 min
Procedure: Cells were transfected using a reverse transfection protocol while plating into a poly-D-lysine coated white 96-well plates. Cells were plated at 60,000 cells with 100 ng of plasmid DNA and 0.6 µg of polyethyleneimine (PEI) per well. Cells were cultured for 24 h before washing with HBSS and incubating in HBSS at 37 °C for 30 min. NanoGlo substrate was added a final 1:800 dilution and plates incubated for 10 min at 37 °C. […] After 5 min of baseline measurements, readings were paused and test compounds added to the plate.

[3] = Nluc-FFA1, multiple concentration of labelled ligand association model

T1 sequence (O14842 whole entry): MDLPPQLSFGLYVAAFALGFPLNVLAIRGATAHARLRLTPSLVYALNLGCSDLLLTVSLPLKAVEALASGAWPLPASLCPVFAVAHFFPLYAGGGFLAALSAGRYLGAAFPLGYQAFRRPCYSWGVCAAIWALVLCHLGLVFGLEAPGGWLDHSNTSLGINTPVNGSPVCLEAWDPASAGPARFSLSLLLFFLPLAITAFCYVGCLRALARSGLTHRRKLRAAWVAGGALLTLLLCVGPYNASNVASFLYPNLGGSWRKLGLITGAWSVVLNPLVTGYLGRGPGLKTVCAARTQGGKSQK
T2 sequence (O14842 whole entry): as above
Chain of FFA1-Nluc (O14842 whole entry): as above

Q: How did the “Specific BRET” value (Nluc-FFA1; Nluc-FFA1 (Fig 1F), percentage of the maximal signal, [TUG-2597] 550 nM) turn out when `COc1ccc(C(=O)N(CC(C)(C)CNc2ccc([N+](=O)[O-])c3nonc23)c2cccc(C)n2)c(N2CCC(COc3cccc(C(CC(=O)O)C4CC4)c3)CC2)c1.O=C(O)C(F)(F)F` (centres unmarked) [TUG-2597] was run?
A: The value was 73.921% and 62.249% and 55.324% and 54.737% and 83.741% and 100.190%.

Q: And the Kd (Nluc-FFA1; Nluc-FFA1, 95% confidence interval in parentheses, read-out: Kd, saturation BRET binding)?
A: The Kd was 390 nM.

Q: What about the “Specific BRET (540/450) Ratio” value (Nluc-FFA1; Nluc-FFA1, [TUG-2597] 100 nM) of the same compound?
A: The value was 0.0112 and 0.0100 and 0.0162 and 0.0091 and 0.0128 and 0.0161.

Q: And the “Specific BRET (540/450) Ratio” value (Nluc-FFA1; Nluc-FFA1, [TUG-2597] 550 nM)?
A: Its value is 0.0530 and 0.0471 and 0.0466.

Q: And the “Specific BRET (540/450) Ratio” value (Nluc-FFA1; Nluc-FFA1, [TUG-2597] 1000 nM)?
A: Its value is 0.0547 and 0.0609 and 0.0560 and 0.0683 and 0.0664 and 0.0577.

Q: And the “kOn Nano-BRET” value (Nluc-FFA1; Nluc-FFA1, association then dissociation model)?
A: The value was 58333.33 M⁻¹ s⁻¹.

Q: What about the “kOff Nano-BRET” value (Nluc-FFA1; Nluc-FFA1, association then dissociation model, TUG-2591 100 nM then TUG-905 10 μM, or TUG-2597 […] then T360 10 μM) of the same compound?
A: The value was 0.00633 s⁻¹.

Q: What about the Kd (Nluc-FFA1; Nluc-FFA1, association then dissociation model, read-out: Kd Nano-BRET (kinetic)) of the same compound?
A: The Kd was 110 nM.

Q: And the “kOff Nano-BRET Multiple Concentration” value (Nluc-FFA1; [3])?
A: Its value is 0.0065 s⁻¹.

Q: What about the “kOn Nano-BRET Multiple Concentration” value (Nluc-FFA1; [3]) of the same compound?
A: Its value is 12000 M⁻¹ s⁻¹.

Q: What about the Kd (Nluc-FFA1; Nluc-FFA1, read-out: Kd Nano-BRET Multiple Concentration (kinetic)) of the same compound?
A: The Kd was 540 nM.

Q: What about the “kOff Nano-BRET Allosterism, Nluc-FFA1” value (Nluc-FFA1; TUG-2591 (1 μM) in the presence of T360 (30μM), TUG-2597 (1 μM) in the presence of TUG-905 (30μM), 95% CI in parentheses) of the same compound?
A: Its value is 0.20 (0.195-0.203) min-1.

Q: What about the Kd (Nluc-FFA1; footnotes of Supplementary Table 3, read-out: Kd values obtained in NanoBRET saturation experiments (used for pKi) (converted)) of the same compound?
A: The Kd was 380 nM.

Q: And the Kd (Nluc-FFA1; using either Nluc location (N or C terminal), read-out: Kd, saturation NanoBRET)?
A: Its Kd is 350 to 440 nM.

Q: What about the pEC50 (FFA1 [1]; Ca2+ data, mean±SEM, NR = No response) of the same compound?
A: The pEC50 was 7.27±0.15.

Q: And the “Ca2+ Response as a % of T360 Response” value (FFA1 [1]; FFA1-Nluc cells, log[ligand] -6, technical replicates)?
A: Its value is 99.449% and 102.959% and 94.044% and 86.097% and 89.862% and 94.557% and 93.903% and 112.372% and 96.085%.

Q: What about the “Ca2+ Response as a % of T360 Response” value (FFA1 [1]; FFA1-Nluc cells, log[ligand] -6.5, technical replicates) of the same compound?
A: The value was 93.856%.

Q: And the “Ca2+ Response as a % of T360 Response” value (FFA1 [1]; Nluc-FFA1 cells, log[ligand] -6, technical replicates)?
A: The value was 98.502% and 90.832% and 83.286% and 100.456% and 100.532% and 98.348% and 86.132% and 101.429% and 99.802%.

Q: And the “Ca2+ Response as a % of T360 Response” value (FFA1 [1]; Nluc-FFA1 cells, log[ligand] -6.5, technical replicates)?
A: Its value is 75.000% and 74.673% and 79.991% and 79.440% and 88.972% and 77.424%.

Q: And the “activity in Ca2+ assays” value (FFA1 [1]; in words)?
A: The value was “full agonist activity”.

Q: What about the “Ca2+ Response as a % of T360 Response” value (FFA1 [1]; log[Ligand] -5, single technical replicates) of the same compound?
A: Its value is 94.1089% and 100.3658% and 94.0694% and 95.2773% and 93.4218% and 94.0281% and 113.6201% and 103.7535% and 91.4802%.

Q: And the “Ca2+ Response as a % of T360 Response” value (FFA1 [1]; log[Ligand] -5.5, single technical replicates)?
A: The value was 88.4228% and 88.1164% and 92.8756% and 94.9449% and 95.8176% and 102.8518% and 111.3779% and 100.7045% and 94.6978%.

Q: And the “Ca2+ Response as a % of T360 Response” value (FFA1 [1]; log[Ligand] -6, single technical replicates)?
A: The value was 102.9594% and 94.0443% and 86.0972% and 89.8623% and 94.5572% and 93.9027% and 112.3722% and 96.0847% and 99.4485%.

Q: And the “Ca2+ Response as a % of T360 Response” value (FFA1 [1]; log[Ligand] -6.5, single technical replicates)?
A: The value was 98.0209% and 82.7239% and 91.3275% and 93.3935% and 84.3453% and 87.8268% and 93.2804% and 88.9497% and 93.8558%.

Q: And the “Ca2+ Response as a % of T360 Response” value (FFA1 [1]; log[Ligand] -7, single technical replicates)?
A: Its value is 78.0026% and 75.4199% and 62.2477% and 75.7232% and 79.9853% and 65.5987% and 54.9740% and 35.8972% and 43.3457%.

Q: And the “Ca2+ Response as a % of T360 Response” value (FFA1 [1]; log[Ligand] -8, single technical replicates)?
A: Its value is 14.2762% and 15.7577% and 11.8329% and 8.5966% and 24.0260% and 6.3496% and -0.7745% and -0.6973% and 0.6419%.

Q: What about the “Ca2+ Response as a % of T360 Response” value (FFA1 [1]; log[Ligand] -9, single technical replicates) of the same compound?
A: The value was 2.8056% and 3.1175% and 1.8245% and 0.4833% and 3.2822% and 3.2529% and 0.4143% and 0.1324% and 3.0301%.

Q: And the EMax (FFA1 [1]; percentage of response to 10 μM T360, NR = No response)?
A: The EMax was 101±4%.

Q: What about the “Ca2+ Response as a % of T360 Response” value (FFA1 [1]; untagged FFA1 cells, log[ligand] -6, technical replicates) of the same compound?
A: Its value is 93.834% and 82.677% and 85.015% and 110.264% and 98.194% and 98.400% and 82.235% and 72.424% and 63.906% and 83.124% and 92.268% and 73.931%.

Q: And the “EMax (% TUG-905) arrestin-3 recruitment” value (FFA1 [2]; percentage of the response to 10 μM TUG-905)?
A: Its value is 60 ± 6%.

Q: What about the “pEC50 arrestin-3 recruitment” value (FFA1 [2]; N=3) of the same compound?
A: The value was 8.5 ± 0.3.

Q: And the “internalization of FFA1-Nluc” value (FFA1-Nluc)?
A: Its value is “No internalization”.
